Laboratory results from ChEMBL document CHEMBL4811285, “Effects of N-terminus modified Hx-amides on DNA binding affinity, sequence specificity, cellular uptake, and gene expression” (Bioorg Med Chem Lett, 2021).
Activity calls are given as the source filed them. The calls are words filed in the database; no cut-off is given here.

Assays:
TOP2A promoter [1] = assay: Inhibition of 5'-TACGAT-3 (unknown origin) binding to 32P-radiolabeled DNA ICB2 -binding site (unknown origin) assessed as disruption NF-Y/ICB2 interaction using NIH3T3 cell nuclear protein extract at >= 3 uM incubated for 1 hr by electrophoretic mobility shift assay; details: dose microM >=3, time 1.0 hrs
[2] = Drug uptake in mouse NIH3T3 cells assessed as increase in fluorescence intensity at 1 uM after 24 hr by confocal microscopic analysis relative to control; assay type: ADME, cell-based; details: nih3t3, 24 h
DNA [3] = assay: Binding affinity to DNA at 5'-ACCGGT-3' (unknown origin) upto 25 uM by DNase1 footprinting based autoradiogram analysis; assay type: nucleic-acid assay; details: dose microM <=25
DNA [4] = assay: Binding affinity to DNA at 5'-ACGGGT-3' site (unknown origin) assessed as protection of the site from enzyme digestion at 5 uM by DNase1 footprinting based autoradiogram analysis; assay type: nucleic-acid assay
DNA [5] = assay: Binding affinity to DNA at 5'-AAGCTT-3' site (unknown origin) assessed as protection of the site from enzyme digestion at 5 uM by DNase1 footprinting based autoradiogram analysis; assay type: nucleic-acid assay
TOP2A promoter [6] = assay: Binding affinity to 5'-AACGTT-3' DNA (unknown origin) at 10 uM by DNase1 footprinting based Autoradiogram analysis; assay type: nucleic-acid assay
DNA [7] = assay: Binding affinity to DNA at 5'-AAGCTT-3' (unknown origin) upto 25 uM by DNase1 footprinting based autoradiogram analysis; assay type: nucleic-acid assay; details: dose microM <=25
DNA [8] = assay: Binding affinity to DNA at 5'-ACGGGT-3' (unknown origin) upto 25 uM by DNase1 footprinting based autoradiogram analysis; assay type: nucleic-acid assay; details: dose microM <=25
[9] = Drug uptake in mouse NIH3T3 cells assessed as increase in fluorescence intensity at 10 uM after 24 hr by confocal microscopic analysis relative to control; assay type: ADME, cell-based; details: nih3t3, 24 h
DNA [10] = assay: Binding affinity to DNA at 5'-ACTAGT-3' (unknown origin) upto 25 uM by DNase1 footprinting based autoradiogram analysis; assay type: nucleic-acid assay; details: dose microM <=25
DNA [11] = assay: Binding affinity to DNA at 5'-ACGCGT-3' (unknown origin) upto 25 uM by DNase1 footprinting based autoradiogram analysis; assay type: nucleic-acid assay; details: dose microM <=25
TOP2A promoter [12] = assay: Binding affinity to 5'-AACGTT-3' DNA (unknown origin) at 3 uM by DNase1 footprinting based Autoradiogram analysis; assay type: nucleic-acid assay
[13] = Drug uptake in mouse NIH3T3 cells assessed as increase in fluorescence intensity at 20 uM after 24 hr by confocal microscopic analysis relative to control; assay type: ADME, cell-based; details: nih3t3, 24 h
DNA [14] = assay: Binding affinity to DNA at 5'-AAATTT-3' (unknown origin) upto 25 uM by DNase1 footprinting based autoradiogram analysis; assay type: nucleic-acid assay; details: dose microM <=25
TOP2A promoter [15] = assay: Binding affinity to 5'-AACGTT-3' DNA promoter TOP2A (unknown origin) at 3 uM by DNase1 footprinting based Autoradiogram analysis; assay type: nucleic-acid assay
[16] = Drug uptake in mouse NIH3T3 cells assessed as fluorescence in nucleus upto 20 uM incubated for 24 hrs under dark condition by mito-tracker dye based confocal microscopic analysis; assay type: ADME, cell-based; details: nih3t3, 24 h
TOP2A promoter [17] = assay: Inhibition of 5'-TACGAT-3 (unknown origin) binding to 32P-radiolabeled DNA ICB2 -binding site (unknown origin) assessed as disruption NF-Y/ICB2 interaction using NIH3T3 cell nuclear protein extract at >= 1 uM incubated for 1 hr by electrophoretic mobility shift assay; details: dose microM >=1, time 1.0 hrs
[18] = Induction of TOP2A mRNA expression in human A549 cells assessed as fold increase in mRNA expression at 2 uM incubated for 18 hrs by real time PCR analysis; assay type: cell-based
TOP2A promoter [19] = assay: Binding affinity to 5'-AACGTT-3' DNA (unknown origin) at 1 uM by DNase1 footprinting based Autoradiogram analysis; assay type: nucleic-acid assay
TOP2A promoter [20] = assay: Binding affinity to 5'-AACGTT-3' DNA (unknown origin) at 0.5 uM by DNase1 footprinting based Autoradiogram analysis; assay type: nucleic-acid assay
[21] = Drug uptake in mouse NIH3T3 cells assessed as fluorescence in mitochondria upto 20 uM incubated for 24 hrs under dark condition by mito-tracker red dye based confocal microscopic analysis; assay type: ADME; details: nih3t3, 24 h
TOP2A promoter [22] = assay: Inhibition of 5'-TACGAT-3 (unknown origin) binding to 32P-radiolabeled DNA ICB2 -binding site (unknown origin) assessed as disruption NF-Y/ICB2 interaction using NIH3T3 cell nuclear protein extract incubated for 1 hr by electrophoretic mobility shift assay

Q: For CN(C)CCCNC(=O)c1cc(NC(=O)c2nc(NC(=O)c3ccc4nc(-c5cc6ccccc6o5)[nH]c4c3)cn2C)cn1C, which inhibition (TOP2A promoter [1]) is on record?
A: Active

Q: For CN(C)CCCNC(=O)c1cc(NC(=O)c2nc(NC(=O)c3ccc4nc(-c5ccco5)[nH]c4c3)cn2C)cn1C, which inhibition (TOP2A promoter [1]) is on record?
A: Active

Q: For COc1ccc(-c2nc3ccc(C(=O)Nc4cn(C)c(C(=O)Nc5cc(C(=O)NCCCN(C)C)n(C)c5)n4)cc3[nH]2)cc1, which Flu intensity [2] is on record?
A: 2.75

Q: What about the Activity (DNA [3]) of the same molecule?
A: inactive

Q: And the Activity (DNA [4])?
A: Active

Q: And the Activity (DNA [5])?
A: Active

Q: And the Activity (TOP2A promoter [6])?
A: inactive

Q: What about the Activity (DNA [7]) of the same molecule?
A: inactive

Q: And the Activity (DNA [8])?
A: inactive

Q: What about the Flu intensity [9] of the same molecule?
A: 13.96

Q: And the Activity (DNA [10])?
A: inactive

Q: What about the Activity (DNA [11]) of the same molecule?
A: inactive

Q: What about the Activity (TOP2A promoter [12]) of the same molecule?
A: Active

Q: And the Flu intensity [13]?
A: 32.03

Q: And the Activity (DNA [14])?
A: inactive

Q: Which inhibition (TOP2A promoter [1]) does the source give for COc1ccc(-c2nc3ccc(C(=O)Nc4cn(C)c(C(=O)Nc5cc(C(=O)NCCCN(C)C)n(C)c5)n4)cc3[nH]2)cn1 here?
A: Active

Q: With CN(C)CCCNC(=O)c1cc(NC(=O)c2nc(NC(=O)c3ccc4nc(-c5ccc(F)cc5)[nH]c4c3)cn2C)cn1C as the molecule, how does the Flu intensity [2] read?
A: 1.12

Q: What about the Activity (TOP2A promoter [15]) of the same molecule?
A: Active

Q: And the Flu intensity [9]?
A: 6.08

Q: What about the Drug uptake [16] of the same molecule?
A: Active

Q: And the inhibition (TOP2A promoter [17])?
A: Active

Q: What about the Activity (TOP2A promoter [12]) of the same molecule?
A: Active

Q: What about the Flu intensity [13] of the same molecule?
A: 15.01

Q: What about the fold induction at 2 µM ([18]; Homo sapiens, A549, read-out: FC) of the same molecule?
A: 1.7

Q: Which Flu intensity [2] does the source give for CN(C)CCCNC(=O)c1cc(NC(=O)c2nc(NC(=O)c3ccc4nc(-c5ccncc5)[nH]c4c3)cn2C)cn1C here?
A: 1.29

Q: What about the Activity (TOP2A promoter [19]) of the same molecule?
A: Active

Q: And the Flu intensity [9]?
A: 1.49

Q: And the Activity (TOP2A promoter [20])?
A: Active

Q: And the Drug uptake [21]?
A: Active

Q: What about the Flu intensity [13] of the same molecule?
A: 1.6

Q: What about the inhibition (TOP2A promoter [22]) of the same molecule?
A: Dose-Dependent Effect

Q: And the Activity ([18]; human, a549, 18 h, 2 µM)?
A: Not Active
